{
  "source": "paper PMC9552247",
  "about": "(Addiction biology, 2022)",
  "biological_target": "human DAT (CHO-DAT) (Homo sapiens, UniProt Q01959)",
  "sequence (Q01959 whole entry)": "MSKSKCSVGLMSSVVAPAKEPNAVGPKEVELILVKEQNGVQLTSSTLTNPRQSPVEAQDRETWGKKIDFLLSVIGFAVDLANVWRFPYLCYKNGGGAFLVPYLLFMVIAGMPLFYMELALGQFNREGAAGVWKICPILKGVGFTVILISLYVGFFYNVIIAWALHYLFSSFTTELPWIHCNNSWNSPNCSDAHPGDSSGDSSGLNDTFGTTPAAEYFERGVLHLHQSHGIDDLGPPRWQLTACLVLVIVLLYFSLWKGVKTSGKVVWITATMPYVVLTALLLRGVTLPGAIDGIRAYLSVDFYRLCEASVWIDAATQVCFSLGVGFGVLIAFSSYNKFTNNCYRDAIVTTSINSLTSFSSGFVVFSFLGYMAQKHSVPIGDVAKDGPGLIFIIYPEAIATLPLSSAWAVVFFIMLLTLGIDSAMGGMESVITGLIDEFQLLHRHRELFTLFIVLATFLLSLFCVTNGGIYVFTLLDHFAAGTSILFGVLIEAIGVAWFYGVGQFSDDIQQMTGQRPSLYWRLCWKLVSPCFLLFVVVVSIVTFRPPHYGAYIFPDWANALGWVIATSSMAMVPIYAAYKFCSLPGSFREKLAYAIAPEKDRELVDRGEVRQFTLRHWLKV",
  "conditions": "labelled compound, 60 nM, pH 7.4, 37°C",
  "data": [
    {"molecule": "NCCc1ccc(O)c(O)c1", "note": "[dopamine]", "values": [
      {"measurement": "[3H]-dopamine uptake in CHO-DAT cells", "value": "cells expressing the DA transporter (CHO-DAT) using tritiated dopamine"}
    ]}
  ]
}
